In patent US20200325156A1, “HETEROARYL AMIDE COMPOUNDS, PREPARATION METHOD THEREFOR, PHARMACEUTICAL COMPOSITIONS THEREOF, AND APPLICATIONS THEREOF” (Rui Jin Hospital Affiliated to Shanghai Jiao Tong …, priority 2017, published 2020):

Columns and labels:
Format in all cases: cell-based
[1] = test system: human gastric cancer cells BGC-823; assay: MTS cell growth inhibition, BGC-823; settings: compound concentration 10 μM, 48 h, read-out: Inhibition rate against BGC-823 at 10 μM (%)
Experimental: (§1) 1) Medium: DMEM (Dulbecco's modified eagle medium) or RPMI1640 (containing 10% fetal bovine serum, 100 μg/mL ampicillin, 100 μg/mL streptomycin).
(§2) 2) Reagent: MTS reaction solution (containing 2 mg/mL of MTS (3-(4,5-dimethylthiazol-2-yl)-5-(3-carboxymethoxyphenyl)-2-(4-sulfophenyl)-2H-tetrazolium, inner salt); 100 μg/mL PES ([…])).
(§3) Human promyelocytic leukemia cells HL-60 (2×10^4 cells/well) cultured in vitro were incubated into a 96-well culture plate, the volume of cell-culture medium was 90 μL, and then 10 μL of the compound at each gradient concentration was added (the highest concentration was 10 μM, which was diluted stepwise by ⅓, and 8 concentration points were set in total; the system contained 0.1% DMSO (dimethyl sulfoxide)). The cell plate with uniformly mixed compound was cultured in a cell culture incubator (37° C.; 5% CO2) for 48 h, then 20 μμL of MTS reaction solution was added, uniformly mixed and incubated in the cell culture incubator (37° C.; 5% CO2) for 1-4 hr; OD values at 490 nm were measured by a microplate reader (VARIOSKAN FLASH, Thermo). Three parallels were set in each group of experiments, with 0.1% (a final concentration) DMSO as a negative control, and a medium without cells and compounds as a blank control. The cell growth inhibition rate was calculated by the following formula:
(§4) Cell growth inhibition rate%=1−(ODexperimental group−ODblank group)/(ODnegative group−ODblank group)×100%
(§5) 4) IC50 calculation: The semi-inhibitory concentration of the compound acting on cell was calculated using GradPad Prism 5 software according to the measured cell growth inhibition rate.
(§6) Human lung cancer cells A549, human gastric cancer cells BGC-823, human liver cancer cells HepG-2 and human breast cancer cells MCF-7, human osteosarcoma cells U2OS, human prostate cancer cells LNCAP cultured in vitro were added in a 96-well culture plate at 1,000-10,000 cells/well, incubated until adherence, and then the compound was added. As to other procedures, please refer to the method (1) above.

[2] = test system: lung cancer cell line NCI-1975; assay: Growth inhibitory activity, NCI-1975; settings: growth inhibition; read-out: Lung cancer cells IC50 NCI-1975
[3] = test system: human breast cancer cells MCF-7; assay: MTS cell growth inhibition, MCF-7; settings: MCF7, compound concentration 10 μM, 48 h, read-out: Inhibition rate against MCF-7 at 10 μM (%)
Experimental: as §1, §2, §3, §4, §5, §6

[4] = test system: human prostate cancer cells LNCAP; assay: MTS cell growth inhibition, LNCAP; settings: Homo sapiens, LNCaP; compound concentration 10 μM; 48 h; MTS; read-out: Inhibition rate against LNCAP at 10 μM (%)
Experimental: as §1, §2, §3, §4, §5, §6

[5] = test system: human embryo lung cell line HFL-1; assay: Growth inhibitory activity, HFL-1; settings: HFL1, growth inhibition, normal cells
[6] = test system: human osteosarcoma cells U2OS; assay: MTS cell growth inhibition, U2OS; settings: Homo sapiens, U2OS; compound concentration 10 μM; 48 h; MTS; read-out: Inhibition rate against U2OS at 10 μM (%)
Experimental: as §1, §2, §3, §4, §5, §6

[7] = test system: human liver cancer cells HepG-2; assay: MTS cell growth inhibition, HepG-2; settings: HepG2, compound concentration 10 μM, 48 h, read-out: Inhibition rate against HepG-2 at 10 μM (%)
Experimental: as §1, §2, §3, §4, §5, §6

leukemia cell line THP-1 = assay: Growth inhibitory activity, THP-1; settings: Homo sapiens, growth inhibition, read-out: Leukemia cells IC50 THP-1
leukemia cell line NB-4 = assay: Growth inhibitory activity, NB4; settings: growth inhibition; read-out: Leukemia cells IC50 NB4
[8] = test system: Human lung cancer cells A549; assay: MTS cell growth inhibition, A549
Experimental: as §1, §2, §3, §4, §5, §6

[9] = test system: tumor cells (NCI-1975, HCC827, A549, SHI-1, THP-1, NB-4); assay: Growth inhibition of tumor cells (summary over cell lines); settings: range over lung cancer and leukemia cell lines
Experimental: as §1, §2
as §3, with “Three parallels were set in each group of experiments, with 0.1% (a final concentration) DMSO as a negative control, and a medium without cells and compounds as a blank control.” left out, “formula: […]” for “formula:”
4) IC50 calculation: The semi-inhibitory concentration of the compound acting on cell was calculated using GradPad Prism 5 software according to the measured cell growth inhibition rate. […]

leukemia cell line SHI-1 = assay: Growth inhibitory activity, SHI-1; settings: growth inhibition; read-out: Leukemia cells IC50 SHI-1
[10] = test system: human embryo lung cell line WI-38; assay: Growth inhibitory activity, WI-38; settings: growth inhibition, normal cells
[11] = test system: lung cancer cell line HCC827; assay: Growth inhibitory activity, HCC827; settings: Homo sapiens, growth inhibition, read-out: Lung cancer cells IC50 HCC827
[12] = test system: Human promyelocytic leukemia cells HL-60; assay: MTS cell growth inhibition, HL-60; settings: Homo sapiens, HL-60; compound concentration 10 μM; 48 h; MTS; read-out: Inhibition rate against HL-60 at 10 μM (%)
Experimental: as §1, §2, §3, §4, §5

[13] = test system: normal human embryo lung cells (WI-38 and HFL-1); assay: Growth of normal human embryo lung cells (summary)

SMILES: CC(C)Oc1ccc(NC(=O)c2cc3scnc3[nH]2)cc1 [Compound I-2]
- inhibition at 10 µM [1]: 61.7%
- IC50 [2]: 0.057 µM
- inhibition at 10 µM [3]: 23.1%
- inhibition at 10 µM [4]: 22.2%
- IC50 [5]: 8.59 µM
- inhibition at 10 µM [6]: 19.4%
- inhibition at 10 µM [7]: 60.1%
- IC50 (leukemia cell line THP-1): 2.46 µM
- IC50 (leukemia cell line NB-4): 0.28 µM
- inhibition at 10 µM ([8]; compound concentration 10 μM, 48 h, MTS, read-out: Inhibition rate against A549 at 10 μM (%)): 81.9%
- IC50 ([8]; growth inhibition): 0.03 µM
- IC50 [9]: 0.008 to 0.28 µM
- IC50 (leukemia cell line SHI-1): 0.221 µM
- IC50 [10]: 5.62 µM
- IC50 [11]: 0.008 µM
- inhibition at 10 µM [12]: < 0%
- IC50 [13]: > 5 µM
